Assay results: patent US12258344B2, “Azaaromatic amide derivatives for the treatment of cancer” (SHENZHEN FORWARD PHARMACEUTICALS CO., LTD., priority 2019, dated 2025)

Assays:
Type in all cases: cell-based
[1] = target: T1, BaF3 (EGFR/S768I) (Homo sapiens, UniProt P00533, cells depend on it, form not given); assay: Test 19: EGFR/S768I mutant cell line proliferation test; conditions: EGFR S768I and EGFR L861Q (tests 19-20), in words
T1 construct: other: EGFR S768I and EGFR L8
Description: Test 19: EGFR/S768I Mutant Cell Line Proliferation Test
(§1) The number of viable cells in the culture was measured according to the protocol described in Promega's Cell Titer-Glo Luminescent cell Viability Assay (Promega catalog number #G7570). 90 μl of cells (3,000 cells/well) were cultured in growth medium in a Corning black transparent bottom 96-well plate, and cultured in a 5% CO2 humidified incubator at 37° C. overnight. The compound serially diluted in 100% DMSO was added to the cells using a pipette, and the cells were incubated for another 72 hours. 100 μl of the mixed Cell Titer-Glo reagent was added to the cells in the 96-well culture plate to lyse the cells and mix gently. Subsequently, the […] was detected on the Envision microplate detector to obtain the data of each compound. Finally, the data was input into a suitable software package (such as Prism) for curve fitting analysis.

[2] = target: BaF3 (EGFR-D770insSVD) (Homo sapiens, UniProt P00533, DUP768-770, cells depend on it); assay: Test 2: BaF3 (EGFR-D770insSVD) cell proliferation test; conditions: 72 hours, Cell Titer-Glo, read-out: Test 2 - IC50
Description: Test 2: BaF3 (EGFR-D770insSVD) Cell Proliferation Test
BaF3 (EGFR-D770insSVD) was cultured in RPMI1640 medium containing 10% fetal bovine serum and 2 mM glutamine. The cells were grown at 37° C. in a humidified incubator with 5% CO2.
as §1

[3] = target: BaF3 (EGFR-L861Q) (Homo sapiens, UniProt P00533, L861Q, cells depend on it); assay: Test 8: BaF3 (EGFR-L861Q) cell proliferation test; conditions: 72 hours, Cell Titer-Glo, read-out: Test 8 - IC50
Description: Test 8: BaF3 (EGFR-L8610) Cell Proliferation Test
BaF3 (EGFR-L861Q) was cultured in RPMI1640 medium containing 10% fetal bovine serum and 2 mM glutamine. The cells were grown at 37° C. in a humidified incubator with 5% CO2.
as §1

[4] = target: BaF3 (HER2-A775insYVMA) (Homo sapiens, UniProt P04626, DUP772-775, cells depend on it); assay: Test 9: BaF3 (HER2-A775insYVMA) cell proliferation test; conditions: 72 hours, Cell Titer-Glo, read-out: Test 9 - IC50
Description: Test 9: BaF3 (HER2-A775insYVMA) Cell Proliferation Test
BaF3 (HER2-A775insYVMA) was cultured in RPMI1640 medium containing 10% fetal bovine serum and 2 mM glutamine. The cells were grown at 37° C. in a humidified incubator with 5% CO2.
as §1

[5] = target: BaF3 (EGFR-S768I) (Homo sapiens, UniProt P00533, S768I, cells depend on it); assay: Test 7: BaF3 (EGFR-S768I) cell proliferation test; conditions: 72 hours, Cell Titer-Glo, read-out: Test 7 - IC50
Description: Test 7: BaF3 (EGFR-S768I) Cell Proliferation Test
BaF3 (EGFR-S768I) was cultured in RPMI1640 medium containing 10% fetal bovine serum and 2 mM glutamine. The cells were grown at 37° C. in a humidified incubator with 5% CO2.
as §1

[6] = target: BaF3 (EGFR-N771insH) (Homo sapiens, UniProt P00533, INS771H, cells depend on it); assay: Test 5: BaF3 (EGFR-N771insH) cell proliferation test; conditions: 72 hours, Cell Titer-Glo, read-out: Test 5 - IC50
Description: Test 5: BaF3 (EGFR-N771insH) Cell Proliferation Test
BaF3 (EGFR-N771insH) was cultured in RPMI1640 medium containing 10% fetal bovine serum and 2 mM glutamine. The cells were grown at 37° C. in a humidified incubator with 5% CO2.
as §1

[7] = target: BaF3 (EGFR-V769insASV) (Homo sapiens, UniProt P00533, DUP767-769, cells depend on it); assay: Test 4: BaF3 (EGFR-V769insASV) cell proliferation test; conditions: 72 hours, Cell Titer-Glo, read-out: Test 4 - IC50
Description: Test 4: BaF3 (EGFR-V769insASV) Cell Proliferation Test
BaF3 (EGFR-V769insASV) was cultured in RPMI1640 medium containing 10% fetal bovine serum and 2 mM glutamine. The cells were grown at 37° C. in a humidified incubator with 5% CO2.
as §1

[8] = target: BaF3 (EGFR-A763insFQEA) (Homo sapiens, UniProt P00533, INS763FQEA, cells depend on it); assay: Test 3: BaF3 (EGFR-A763insFQEA) cell proliferation test; conditions: 72 hours, Cell Titer-Glo, read-out: Test 3 - IC50
Description: Test 3: BaF3 (EGFR-A763insFOEA) Cell Proliferation Test
BaF3 (EGFR-A763insFQEA) was cultured in RPMI1640 medium containing 10% fetal bovine serum and 2 mM glutamine. The cells were grown at 37° C. in a humidified incubator with 5% CO2.
as §1

[9] = target: BaF3 (HER2-G776insVC) (Homo sapiens, UniProt P04626, cells depend on it, form not given); assay: Test 11: BaF3 (HER2-G776insVC) cell proliferation test; conditions: 72 hours, Cell Titer-Glo, read-out: Test 11 - IC50
Description: Test 11: BaF3 (HER2-G776insVC) Cell Proliferation Test
The engineered cell line BaF3 (HER2-G776insVC) was constructed by the inventor himself (for the method of cell line construction, see Jingrui Jiang et al., Cancer Res. 2005 Oct. 1; 65 (19): 8964-74; Jacqulyne P. Robichaux et al., Nat Med. 2018 May; 24 (5): 638-646). BaF3 (HER2-G776insVC) was cultured in RPMI1640 medium containing 10% fetal bovine serum and 2 mM glutamine. The cells were grown at 37° C. in a humidified incubator with 5% CO2.
as §1

[10] = target: BaF3 (HER2-P780insGSP) (Homo sapiens, UniProt P04626, DUP778-780, cells depend on it); assay: Test 10: BaF3 (HER2-P780insGSP) cell proliferation test; conditions: 72 hours, Cell Titer-Glo, read-out: Test 10 - IC50
Description: Test 10: BaF3 (HER2-P780insGSP) Cell Proliferation Test
BaF3 (HER2-P780insGSP) was cultured in RPMI1640 medium containing 10% fetal bovine serum and 2 mM glutamine. The cells were grown at 37° C. in a humidified incubator with 5% CO2.
as §1

[11] = target: BaF3 (EGFR-D770insNPG) (Homo sapiens, UniProt P00533, INS772GNP, cells depend on it); assay: Test 6: BaF3 (EGFR-D770insNPG) cell proliferation test; conditions: 72 hours, Cell Titer-Glo, read-out: Test 6 - IC50
Description: Test 6: BaF3 (EGFR-D770insNPG) Cell Proliferation Test
BaF3 (EGFR-D770insNPG) was cultured in RPMI1640 medium containing 10% fetal bovine serum and 2 mM glutamine. The cells were grown at 37° C. in a humidified incubator with 5% CO2.
as §1

[12] = system: NCI-H1975 (EGFR L858R/T790M double mutant); assay: Test 1: EGFR L858R/T790M (EGFR double mutant) cell proliferation test; conditions: Homo sapiens; NCI-H1975 cells, 72 hours, Cell Titer-Glo
Description: Test 1: EGFR L858R/T790M (EGFR Double Mutant) Cell Proliferation Test
The human lung cell line NCI-H1975 (EGFR L858R/T790M double mutant) was obtained from the American Type Culture Collection. NCI-H1975 cells were cultured in RPMI1640 medium containing 10% fetal bovine serum and 2 mM glutamine. The cells were grown at 37° C. in a humidified incubator with 5% CO2.
as §1, with “(8,000” for “(3,000”

[13] = target: T2, BaF3 (EGFR/D770insSVD) (Homo sapiens, UniProt P00533, cells depend on it, form not given); assay: Test 13: EGFR exon 20 inserted D770insSVD cell proliferation test; conditions: A763insFQEA, V769insASV, D770insSVD (tests 13-15), in words
T2 construct: other: A763insFQEA, V769ins
Description: Test 13: EGFR Exon 20 Inserted D770insSVD Cell Proliferation Test
as §1

Sequence of BaF3 (HER2-P780insGSP) (P04626 with tags, fused parts or gaps DUP778-780): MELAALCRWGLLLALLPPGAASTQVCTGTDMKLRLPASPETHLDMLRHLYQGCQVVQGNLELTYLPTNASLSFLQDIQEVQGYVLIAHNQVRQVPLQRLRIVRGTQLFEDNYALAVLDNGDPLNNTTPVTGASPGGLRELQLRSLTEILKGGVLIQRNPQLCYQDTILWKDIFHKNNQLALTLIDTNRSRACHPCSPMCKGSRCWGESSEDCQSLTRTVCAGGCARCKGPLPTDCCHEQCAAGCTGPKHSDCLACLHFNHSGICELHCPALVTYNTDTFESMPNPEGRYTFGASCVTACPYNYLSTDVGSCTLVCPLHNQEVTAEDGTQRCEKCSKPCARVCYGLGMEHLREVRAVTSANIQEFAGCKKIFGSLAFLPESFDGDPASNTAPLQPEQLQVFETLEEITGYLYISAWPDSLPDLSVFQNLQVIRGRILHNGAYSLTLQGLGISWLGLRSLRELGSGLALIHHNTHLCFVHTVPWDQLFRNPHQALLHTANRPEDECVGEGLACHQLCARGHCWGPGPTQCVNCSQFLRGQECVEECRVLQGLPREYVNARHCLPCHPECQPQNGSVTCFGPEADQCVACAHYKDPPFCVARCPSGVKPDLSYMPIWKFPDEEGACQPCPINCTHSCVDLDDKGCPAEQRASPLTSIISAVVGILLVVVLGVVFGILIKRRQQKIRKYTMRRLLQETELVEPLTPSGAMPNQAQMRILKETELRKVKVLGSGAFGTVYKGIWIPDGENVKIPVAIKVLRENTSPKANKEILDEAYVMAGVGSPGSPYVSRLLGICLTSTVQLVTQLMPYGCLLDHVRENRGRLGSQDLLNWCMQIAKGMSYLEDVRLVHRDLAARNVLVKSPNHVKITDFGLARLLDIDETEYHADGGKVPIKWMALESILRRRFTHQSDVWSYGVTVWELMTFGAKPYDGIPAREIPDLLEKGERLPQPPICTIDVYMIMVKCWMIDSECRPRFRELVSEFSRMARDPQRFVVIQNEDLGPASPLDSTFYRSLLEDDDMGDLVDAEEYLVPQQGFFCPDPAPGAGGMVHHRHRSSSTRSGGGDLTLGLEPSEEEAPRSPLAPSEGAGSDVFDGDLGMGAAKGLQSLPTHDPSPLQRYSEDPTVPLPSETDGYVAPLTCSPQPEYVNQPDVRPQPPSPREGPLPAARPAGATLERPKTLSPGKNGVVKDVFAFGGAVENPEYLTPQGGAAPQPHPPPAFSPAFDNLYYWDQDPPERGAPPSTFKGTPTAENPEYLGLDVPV
Sequence of BaF3 (HER2-A775insYVMA) (P04626 with tags, fused parts or gaps DUP772-775): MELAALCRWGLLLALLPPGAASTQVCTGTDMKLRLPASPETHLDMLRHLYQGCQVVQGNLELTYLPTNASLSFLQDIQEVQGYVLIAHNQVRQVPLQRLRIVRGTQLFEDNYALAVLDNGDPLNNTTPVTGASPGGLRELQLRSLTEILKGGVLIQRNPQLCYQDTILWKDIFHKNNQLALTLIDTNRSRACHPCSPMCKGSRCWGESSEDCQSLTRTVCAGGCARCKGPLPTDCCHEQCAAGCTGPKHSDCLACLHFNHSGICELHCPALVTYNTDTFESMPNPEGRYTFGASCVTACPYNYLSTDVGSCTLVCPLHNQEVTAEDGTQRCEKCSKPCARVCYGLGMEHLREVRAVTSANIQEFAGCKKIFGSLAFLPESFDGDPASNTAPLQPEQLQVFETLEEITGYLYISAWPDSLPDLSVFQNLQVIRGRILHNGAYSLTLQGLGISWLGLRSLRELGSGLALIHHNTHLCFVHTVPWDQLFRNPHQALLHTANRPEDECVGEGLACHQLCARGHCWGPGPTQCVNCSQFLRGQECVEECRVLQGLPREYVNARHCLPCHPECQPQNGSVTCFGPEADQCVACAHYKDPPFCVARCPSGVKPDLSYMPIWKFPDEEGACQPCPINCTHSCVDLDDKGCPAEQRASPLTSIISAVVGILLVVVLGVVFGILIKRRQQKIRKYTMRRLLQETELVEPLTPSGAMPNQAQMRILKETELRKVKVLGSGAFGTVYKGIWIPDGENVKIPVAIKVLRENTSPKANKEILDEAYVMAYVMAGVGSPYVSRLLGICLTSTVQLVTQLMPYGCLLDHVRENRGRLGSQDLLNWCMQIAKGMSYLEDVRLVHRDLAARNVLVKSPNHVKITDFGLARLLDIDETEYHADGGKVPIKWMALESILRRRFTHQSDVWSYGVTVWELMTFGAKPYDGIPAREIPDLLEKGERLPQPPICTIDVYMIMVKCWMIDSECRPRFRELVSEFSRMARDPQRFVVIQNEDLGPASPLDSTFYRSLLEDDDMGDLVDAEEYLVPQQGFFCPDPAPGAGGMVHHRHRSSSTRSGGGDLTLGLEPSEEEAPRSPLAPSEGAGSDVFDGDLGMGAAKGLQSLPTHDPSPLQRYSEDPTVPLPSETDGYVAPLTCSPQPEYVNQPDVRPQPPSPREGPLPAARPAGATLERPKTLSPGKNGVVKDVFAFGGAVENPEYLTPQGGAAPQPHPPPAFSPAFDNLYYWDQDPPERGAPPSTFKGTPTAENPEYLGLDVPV
Sequence of BaF3 (HER2-G776insVC) (P04626 with tags, fused parts or gaps DELINS776-776VC): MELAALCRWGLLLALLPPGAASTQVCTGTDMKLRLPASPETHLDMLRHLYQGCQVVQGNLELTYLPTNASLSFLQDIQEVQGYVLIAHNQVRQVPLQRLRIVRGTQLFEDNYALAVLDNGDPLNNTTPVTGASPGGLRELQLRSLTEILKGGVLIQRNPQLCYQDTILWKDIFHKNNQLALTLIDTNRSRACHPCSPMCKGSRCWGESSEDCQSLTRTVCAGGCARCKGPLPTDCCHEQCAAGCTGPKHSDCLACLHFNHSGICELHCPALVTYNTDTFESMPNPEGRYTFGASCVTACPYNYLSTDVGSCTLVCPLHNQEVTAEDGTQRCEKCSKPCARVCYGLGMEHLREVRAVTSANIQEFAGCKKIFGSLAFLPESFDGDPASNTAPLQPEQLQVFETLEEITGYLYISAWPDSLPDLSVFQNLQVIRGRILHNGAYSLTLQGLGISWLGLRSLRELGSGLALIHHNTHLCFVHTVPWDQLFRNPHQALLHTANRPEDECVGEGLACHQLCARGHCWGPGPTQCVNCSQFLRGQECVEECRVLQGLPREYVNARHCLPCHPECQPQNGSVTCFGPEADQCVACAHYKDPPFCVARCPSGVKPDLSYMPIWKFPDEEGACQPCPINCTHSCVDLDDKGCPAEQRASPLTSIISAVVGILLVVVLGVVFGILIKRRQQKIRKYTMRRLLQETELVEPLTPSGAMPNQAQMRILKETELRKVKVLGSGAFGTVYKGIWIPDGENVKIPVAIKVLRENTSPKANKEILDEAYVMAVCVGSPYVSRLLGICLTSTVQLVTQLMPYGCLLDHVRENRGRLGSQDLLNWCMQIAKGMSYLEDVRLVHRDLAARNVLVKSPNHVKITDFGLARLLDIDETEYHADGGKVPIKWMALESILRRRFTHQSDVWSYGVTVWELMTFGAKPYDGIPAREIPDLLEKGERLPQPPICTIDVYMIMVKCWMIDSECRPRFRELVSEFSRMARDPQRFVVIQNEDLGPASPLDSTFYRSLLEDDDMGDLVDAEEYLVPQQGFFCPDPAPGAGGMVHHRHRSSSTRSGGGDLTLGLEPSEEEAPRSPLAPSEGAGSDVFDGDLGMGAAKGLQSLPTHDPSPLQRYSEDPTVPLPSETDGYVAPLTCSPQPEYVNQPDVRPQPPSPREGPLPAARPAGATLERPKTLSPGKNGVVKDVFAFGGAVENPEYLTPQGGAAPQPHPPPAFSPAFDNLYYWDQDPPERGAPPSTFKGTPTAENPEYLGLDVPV

Row | SMILES | activity compared with Osimertinib (AZD9291) against EGFR S768I and EGFR L861Q mutations [1] | GI50 [2] [nM] | GI50 [3] [nM] | GI50 [4] [nM] | GI50 [5] [nM] | GI50 [6] [nM] | GI50 [7] [nM] | GI50 [8] [nM] | GI50 [9] [nM] | GI50 [10] [nM] | GI50 [11] [nM] | IC50 [12] [nM] | cell activity compared with Osimertinib (AZD9291) against EGFR exon 20 insertion mutations [13]
1 | C=CC(=O)Nc1cc(Nc2nccc(-c3cn(C)c4ccccc34)n2)c(OCC(F)(F)F)nc1N(C)CCN(C)C.CS(=O)(=O)O [Compound 31] | superior activity over Osimertinib (AZD9291) |  |  |  |  |  |  |  |  |  |  |  | 
2 | C=CC(=O)Nc1cc(Nc2nccc(-c3cn(C)c4ccccc34)n2)c(OCC(F)(F)F)nc1N(C)CCN(C)C.Cl [Compound 32] | superior activity over Osimertinib (AZD9291) |  |  |  |  |  |  |  |  |  |  |  | 
3 | C=CC(=O)Nc1cc(Nc2ncnc(-c3cn(C)c4ccc(OC)cc34)n2)c(OC)cc1N(C)CCN(C)C [Example 8, N-(2-((2-(dimethylamino)ethyl)(methyl)amino)-4-methoxy-5-((4-(5-methoxy-1-methyl-1H-indol-3-yl)-1,3,5-triazin-2-yl)amino)phenyl)acrylamide] |  | 30 | 5.82 | 21.8 | 7.82 | 18.2 | 57.6 | 16.6 | 2.73 | 11.6 | 22.8 | 39.6 | 
4 | C=CC(=O)Nc1cc(Nc2ncnc(-c3cn(C)c4ccc(Cl)cc34)n2)c(OC)cc1N(C)CCN(C)C [Example 9] |  | 48.7 | 5.01 | 13.9 | 9.17 | 15.3 | 45.5 | 14.3 | 1.8 | 7.59 | 12.8 | 15.3 | 
5 | C=CC(=O)Nc1cc(Nc2ncnc(-c3cn(C)c4cc(Cl)c(OC)cc34)n2)c(OC)cc1N(C)CCN(C)C [Example 10] |  | 566 | 36.1 | 45.2 | 44.5 | 146 | 466 | 183 | 9.56 | 32.6 | 181 | 183 | significant superior cell activity over Osimertinib (AZD9291)
6 | C=CC(=O)Nc1cc(Nc2ncnc(Oc3ccc(Cl)c(OC)c3)n2)c(OC)cc1N(C)CCN(C)C [Example 12] |  | 183 | 17.2 | 98.2 | 29.4 | 82.5 | 121 | 57.3 | 11.4 | 47.8 | 75.3 | 66.3 | 
7 | C=CC(=O)Nc1cc(Nc2ncnc(Oc3ccc(Cl)c(OC)c3)n2)c(OC(F)F)cc1N(C)CCN(C)C [Example 13] |  | 88.7 | 10.8 | 85.2 | 13.6 | 35.6 | 88.6 | 43.1 | 8.36 | 29.6 | 40.9 | 42.1 | 
